# Experimental data from patent US6358885B1, “Substituted phenylheterocyclic herbicides” (Mississippi State University, priority 1992, dated 2002).
# How the values were obtained:
# barley [1] = assay: Test B preemergence/postemergence greenhouse plant response rating 0 to 10; format: in vivo, Hordeum vulgare; settings: 0 to 10 scale
# Outline: (§1)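 Planted seeds are treated preemergence with compound dissolved in a non-phytotoxic solvent, while postemergence applications go onto plants of two to eighteen cm. Plants stay in the greenhouse twelve to sixteen days and are then rated visually relative to controls.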
# bedstraw = assay: as above; format: in vivo, Galium aparine; settings: 0 to 10 scale
# Outline: as §1
# cheatgrass = assay: as above; format: in vivo, Bromus secalinus; settings: 0 to 10 scale
# Outline: as §1
# cocklebur = assay: as above; format: in vivo, Xanthium pensylvanicum; settings: 0 to 10 scale
# Outline: as §1
# giant foxtail [2] = assay: as above; format: in vivo, Setaria faberii; settings: 0 to 10 scale
# Outline: as §1
# lambsquarters = assay: as above; format: in vivo, Chenopodium album; settings: 0 to 10 scale
# Outline: as §1
# morningglory [3] = assay: as above; format: in vivo, Ipomoea hederacea; settings: 0 to 10 scale
# Outline: as §1
# soybean [4] = assay: as above; format: in vivo, Glycine max; settings: 0 to 10 scale
# Outline: as §1
# velvetleaf = assay: as above; format: in vivo, Abutilon theophrasti; settings: 0 to 10 scale
# Outline: as §1
# barley [5] = assay: Test C preemergence/postemergence greenhouse plant response rating 0 to 100; format: in vivo, Hordeum vulgare; settings: PREEMERGENCE; for Plant response rating Barley Igri: 0 to 100 scale
# Description: (§2) The compounds evaluated in this test were formulated in a non-phytoxic solvent and applied to the soil surface before plant seedlings emerged (preemergence application), to water that covered the soil surface (flood application), and to plants that were in the one-to-four leaf stage (postemergence application). A sandy loam soil was used for the preemergence and postemergence tests, while a silt loam soil was used in the flood test. Water depth was approximately 2.5 cm for the flood test and was maintained at this level for the duration of the test. Plant species in the preemergence and postemergence tests consisted of barley (Hordeum vulgare), bedstraw (Galium aparine), blackgrass (Alopecurus myosuroides), chickweed (Stellaria media), corn (Zea mays), cotton (Gossypium hirsutum), crabgrass (Digitaria sanguinalis), downy brome (Bromus tectorum), giant foxtail (Setaria faberii), lambsquarters (Chenopodium album), morningglory (Ipomoea hederacea), pigweed ([…]), rape (Brassica napus), ryegrass (Lolium multiflorum), sorghum (Sorghum bicolor), soybean (Glycine max), speedwell (Veronica persica), sugar beet (Beta vulgaris), velvetleaf (Abutilon theophrasti), wheat (Triticum aestivum), wild buckwheat (Polygonum convolvulus), and wild oat (Avena fatua). All plant species were planted one day before application of the compound for the preemergence portion-of this test. Plantings of these species were adjusted to produce plants of appropriate size for the post-emergence portion of the test. […] All plant species were grown using normal greenhouse practices. Visual evaluations of injury expressed on treated plants, when compared to untreated controls, were recorded approximately fourteen to twenty one days after application of the test compound. […] A dash (-) response means no test result.
# blackgrass = assay: as above; format: in vivo, Alopecurus myosuroides; settings: PREEMERGENCE; for Plant response rating, Blackgrass: 0 to 100 scale
# Description: as §2
# chickweed = assay: as above; format: in vivo, Stellaria media; settings: PREEMERGENCE; for Plant response rating, Chickweed: 0 to 100 scale
# Description: as §2
# giant foxtail [6] = assay: as above; format: in vivo, Setaria faberii; settings: PREEMERGENCE; for Plant response rating, Giant foxtail: 0 to 100 scale
# Description: as §2
# morningglory [7] = assay: as above; format: in vivo, Ipomoea hederacea; settings: PREEMERGENCE; for Plant response rating, Morningglory: 0 to 100 scale
# Description: as §2
# rape = assay: as above; format: in vivo, Brassica napus; settings: PREEMERGENCE; for Plant response rating, Rape: 0 to 100 scale
# Description: as §2
# sorghum = assay: as above; format: in vivo, Sorghum bicolor; settings: PREEMERGENCE
# Description: as §2
# soybean [8] = assay: as above; format: in vivo, Glycine max; settings: PREEMERGENCE
# Description: as §2
smiles,measurement,setting,value
CCCN1C(=O)COc2cc(F)c(-c3nn4c(c3Br)CCCC4)cc21 [Compound 63],"Plant response rating, Barley","barley [1]; POSTEMERGENCE, Rate 10 g/ha",4
same,"Plant response rating, Barley","barley [1]; POSTEMERGENCE, Rate 50 g/ha",5
same,"Plant response rating, Barley","barley [1]; PREEMERGENCE, Rate 10 g/ha",0
same,"Plant response rating, Barley","barley [1]; PREEMERGENCE, Rate 50 g/ha",0
same,"Plant response rating, Bedstraw","bedstraw; POSTEMERGENCE, Rate 10 g/ha",6
same,"Plant response rating, Bedstraw","bedstraw; POSTEMERGENCE, Rate 50 g/ha",8
same,"Plant response rating, Bedstraw","bedstraw; PREEMERGENCE, Rate 10 g/ha",4
same,"Plant response rating, Bedstraw","bedstraw; PREEMERGENCE, Rate 50 g/ha",10
same,"Plant response rating, Cheatgrass","cheatgrass; POSTEMERGENCE, Rate 10 g/ha",4
same,"Plant response rating, Cheatgrass","cheatgrass; POSTEMERGENCE, Rate 50 g/ha",4
same,"Plant response rating, Cheatgrass","cheatgrass; PREEMERGENCE, Rate 10 g/ha",2
same,"Plant response rating, Cheatgrass","cheatgrass; PREEMERGENCE, Rate 50 g/ha",2
same,"Plant response rating, Cocklebur","cocklebur; POSTEMERGENCE, Rate 10 g/ha",8
same,"Plant response rating, Cocklebur","cocklebur; POSTEMERGENCE, Rate 50 g/ha",9
same,"Plant response rating, Cocklebur","cocklebur; PREEMERGENCE, Rate 10 g/ha",0
same,"Plant response rating, Cocklebur","cocklebur; PREEMERGENCE, Rate 50 g/ha",0
same,"Plant response rating, Giant foxtail","giant foxtail [2]; POSTEMERGENCE, Rate 10 g/ha",3
same,"Plant response rating, Giant foxtail","giant foxtail [2]; POSTEMERGENCE, Rate 50 g/ha",3
same,"Plant response rating, Giant foxtail","giant foxtail [2]; PREEMERGENCE, Rate 10 g/ha",0
same,"Plant response rating, Giant foxtail","giant foxtail [2]; PREEMERGENCE, Rate 50 g/ha",1
same,"Plant response rating, Lambsquarter","lambsquarters; POSTEMERGENCE, Rate 10 g/ha",9
same,"Plant response rating, Lambsquarter","lambsquarters; POSTEMERGENCE, Rate 50 g/ha",10
same,"Plant response rating, Lambsquarter","lambsquarters; PREEMERGENCE, Rate 50 g/ha",10
same,"Plant response rating, Morningglory","morningglory [3]; POSTEMERGENCE, Rate 10 g/ha",8
same,"Plant response rating, Morningglory","morningglory [3]; POSTEMERGENCE, Rate 50 g/ha",10
same,"Plant response rating, Morningglory","morningglory [3]; PREEMERGENCE, Rate 50 g/ha",0
same,"Plant response rating, Soybean","soybean [4]; POSTEMERGENCE, Rate 10 g/ha",6
same,"Plant response rating, Soybean","soybean [4]; POSTEMERGENCE, Rate 50 g/ha",5
same,"Plant response rating, Soybean","soybean [4]; PREEMERGENCE, Rate 50 g/ha",0
same,"Plant response rating, Velvetleaf","velvetleaf; POSTEMERGENCE, Rate 10 g/ha",8
same,"Plant response rating, Velvetleaf","velvetleaf; POSTEMERGENCE, Rate 50 g/ha",10
same,"Plant response rating, Velvetleaf","velvetleaf; PREEMERGENCE, Rate 50 g/ha",7
same,Plant response rating Barley Igri,barley [5]; 62 g/ha,10
same,Plant response rating Barley Igri,barley [5]; 250 g/ha,40
same,"Plant response rating (0 to 100), Barley Igri",barley [5]; Rate 4 g/ha,0
same,"Plant response rating (0 to 100), Barley Igri",barley [5]; Rate 16 g/ha,0
same,"Plant response rating, Blackgrass",blackgrass; 62 g/ha,50
same,"Plant response rating, Blackgrass",blackgrass; 250 g/ha,90
same,"Plant response rating (0 to 100), Blackgrass",blackgrass; Rate 4 g/ha,10
same,"Plant response rating (0 to 100), Blackgrass",blackgrass; Rate 16 g/ha,30
same,"Plant response rating, Chickweed",chickweed; 62 g/ha,30
same,"Plant response rating, Chickweed",chickweed; 250 g/ha,50
same,"Plant response rating (0 to 100), Chickweed",chickweed; Rate 4 g/ha,10
same,"Plant response rating (0 to 100), Chickweed",chickweed; Rate 16 g/ha,20
same,"Plant response rating, Giant foxtail",giant foxtail [6]; 62 g/ha,20
same,"Plant response rating, Giant foxtail",giant foxtail [6]; 250 g/ha,75
same,"Plant response rating (0 to 100), Giant foxtail",giant foxtail [6]; Rate 4 g/ha,0
same,"Plant response rating (0 to 100), Giant foxtail",giant foxtail [6]; Rate 16 g/ha,0
same,"Plant response rating, Morningglory",morningglory [7]; 62 g/ha,40
same,"Plant response rating, Morningglory",morningglory [7]; 250 g/ha,100
same,"Plant response rating (0 to 100), Morningglory",morningglory [7]; Rate 4 g/ha,0
same,"Plant response rating (0 to 100), Morningglory",morningglory [7]; Rate 16 g/ha,10
same,"Plant response rating, Rape",rape; 62 g/ha,85
same,"Plant response rating, Rape",rape; 250 g/ha,100
same,"Plant response rating (0 to 100), Rape",rape; Rate 4 g/ha,0
same,"Plant response rating (0 to 100), Rape",rape; Rate 16 g/ha,20
same,"Plant response rating, Sorghum","sorghum; 250 g/ha, 0 to 100 scale",20
same,"Plant response rating (0 to 100), Sorghum",sorghum; Rate 4 g/ha,0
same,"Plant response rating (0 to 100), Sorghum",sorghum; Rate 16 g/ha,0
same,"Plant response rating, Soybean","soybean [8]; 250 g/ha, 0 to 100 scale",20
same,"Plant response rating (0 to 100), Soybean",soybean [8]; Rate 4 g/ha,0
same,"Plant response rating (0 to 100), Soybean",soybean [8]; Rate 16 g/ha,0
